In PubChem BioAssay AID179 (DTP/NCI, 2004):
Active and inactive are the calls of the source.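 Rule for the calls: active = compounds giving half or more protection of infected cells from virus-caused growth loss, again on retest; inactive = the rest.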

Test system: CEM cells HIV-1 protection, formazan growth assay
Test: NCI AIDS Antiviral Assay
Details: for IC50: measured here: growth of uninfected CEM cells
Outline: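 Protection of CEM cells against HIV-1 was scored from cell growth (soluble formazan) across five concentrations, with parallel uninfected cells. Lack of protection may reflect toxicity.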

Structure (SMILES)	EC50 [µM]	IC50 [µM]	outcome
Cc1ccc(S(=O)(=O)NN=C2C(C)CC(C(C)(C)C)CC2C)cc1 (stereo unspecified)	> 200	31.6	
N#CC1N(C(=O)c2ccc(F)cc2)c2ccccc2N1C(=O)c1ccc(F)cc1	> 200	74.1	
COc1cc2c(cc1OC)C13CC[N+]4(C)CC5=CCOC6CC(=O)N2C1C6C5CC34[O-] (stereo unspecified)			inactive
CC12CN3CC(C)(C1=O)C(=O)C(C)(C3)C2=O	> 117	> 117	
O=[As](O)(O)c1ccc(-c2ccc([As](=O)(O)O)cc2)cc1	> 200	> 200	
CCCCCCCCCC1OC(CCCCCCCCC)OC(CCCCCCCCC)O1 (stereo unspecified)	> 200	> 200	
CCCCCCC(C)c1ccc2c(c1)C(=O)c1nc3ccncc3c(=O)n1-2 (stereo unspecified)	> 200	0.955	
N#Cc1nn(C2OC(COC(=O)c3ccccc3)C(OC(=O)c3ccccc3)C2OC(=O)c2ccccc2)c2nc[nH]c(=O)c12 (stereo unspecified)	> 200	74.1	
c1csc(-c2csc(-c3ccsc3)c2)c1	> 200	> 200	
O=C(O)CC1CC=CCC1CC(=O)O (stereo unspecified)	> 200	> 200	
CCc1ccccc1NC(=O)/C(CC(=O)c1c(C)n([O-])c2ccccc2[n+]1=O)=N\NS(=O)(=O)c1ccc(C)cc1	> 23.4	13.5	
Cc1cc(S(=O)(=O)Nc2nc(N)nc3nc4ccccc4n23)c(S)cc1Cl	95.5	380	
Cc1cn(C2CC(O)C(CO)O2)c(=O)n2nnnc12 (stereo unspecified)			inactive
COc1cccc(C=C2C(=O)NC(=O)NC2=O)c1	> 145	> 145	
Cc1nsc2cc(Cl)n(C)c(=O)c12	> 6.76	> 6.76	
CCCC1C2C(=O)N(c3ccccc3)C(=O)C2ON1c1ccccc1 (stereo unspecified)	> 40.7	> 40.7	
O=C(O)c1ccc(NC(=O)c2ccccc2[Se][Se]c2ccccc2C(=O)Nc2ccc(C(=O)O)cc2)cc1	13.8	18.6	
CN1CCOC1(C)CO (stereo unspecified)	> 200	> 200	
COC(=O)[C@@H](NC1(c2ccccc2)c2ccccc2-c2ccccc21)[C@H](OC(=O)[C@H]1CCCN1S(=O)(=O)c1ccccc1)C(=O)OC	> 200	9.33	
CCOC(=O)C1=C(C)N2CCOC2(C)C(C(=O)OC)C1c1cccc(Cl)c1 (stereo unspecified)	> 66.1	> 66.1	
COC(=O)C(Nc1ccc(OC)cc1)c1ccccc1 (stereo unspecified)	> 200	148	
CCc1ccc(/C(C#N)=C/c2ccc(OC)cc2)cc1	> 200	3.98	
CC1(C)OC(COCCOCCCCCO)C(COCCOCCCCCO)O1 (stereo unspecified)			inactive

Structure (SMILES)	EC50 [µM]	IC50 [µM]	outcome
COc1ccc(Nc2nc3ccccc3nc2-c2cccs2)cc1	> 15.5	> 15.5	
COC(=O)[C@H]1[C@H](OC(=O)[C@@H](OC)c2ccccc2)ON2CC[C@@H](OC(=O)c3ccccc3)[C@H]12	> 200	178	
Cc1cccc2c1C(=O)OC2(c1cccc2ccccc12)c1cccc2ccccc12			inactive
CC(C)CCCC(C)C1CCC2[C@@H]3CCC4C[C@@H](CCCC(c5cc(Cl)c(O)c(C(=O)O)c5)c5cc(Cl)c(O)c(C(=O)O)c5)CC[C@]4(C)C3CC[C@]12C (stereo partly specified)	18.2	309	
Cc1ccnc2c1C(=O)C(=O)C=C2N1CCOCC1			inactive
C/C=C(\C)C(=O)O[C@@H]1CC(C)(C)CC2C3=CCC4[C@]56CC[C@](O)(OC5)C(C)(C)C6CC[C@@]4(C)C3(C)CC[C@]21C(=O)O (stereo partly specified)	> 200	18.2	
Cc1cccc(N=Nc2c(C)nn(C(=O)CC(=O)Nc3ccccc3)c2C)c1	> 200	> 200	
O=c1c(-c2cccc(O)c2O)coc2cc(OC3OC(CO)C(O)C(O)C3O)ccc12 (stereo unspecified)	> 200	> 200	
COc1ccc(C(SCC(N)C(=O)O)(c2ccc(OC)cc2)c2ccc(OC)cc2)cc1 (stereo unspecified)	> 200	31.6	
O=c1[nH]c(=O)n(C2CC(O)C(CO)O2)cc1C#Cc1cc(F)cc(F)c1 (stereo unspecified)	> 692	355	
C/C=C1\CN2CCC34c5ccccc5N(C)C35OCC4(C(=O)OC)C1CC25 (stereo unspecified)	> 83.2	25.7	
C[N+](C)(C)CC1CCCC/C1=N\O (stereo unspecified)	> 794	> 794	
CCN(CC)CC(C)(C)C(=O)/C=C/c1ccc(/C=C/C(=O)C(C)(C)CN(CC)CC)cc1			inactive
CN1C(=O)CCC2[C@@H]3CC=C4C[C@@H](O)CC[C@]4(C)C3CC[C@@]21C (stereo partly specified)			inactive
Oc1c(CN2CCCC2)ccc2ccccc12	> 200	> 200	
N#Cc1ccc2oc3ccc(C#N)cc3c(=O)c2c1			inactive
O=C(/C=C/c1cccc2ccccc12)c1ccccc1Cl	> 12.9	11	
C=C1CN(S(=O)(=O)c2ccc(C)cc2)CCCN(Cc2ccccn2)CCCN(S(=O)(=O)c2ccc(C)cc2)C1	> 200	> 200	
CC(=O)c1cc2c3c(c1)C(=O)CCN3CCC2=O			inactive
N#Cc1c2c(c(Nc3ccc(Cl)cc3)n3c1nc1ccccc13)CCCC2	> 200	11.5	
O=C1CN(C=C(C(=O)c2ccccc2)C(=O)c2ccccc2)C(=S)N1			inactive
O=C1c2nn(-c3ccccc3)nc2C(c2ccccc2)N1c1ccccc1 (stereo unspecified)	> 14.8	> 14.8	
C[N+](C)(C)CCCC#CC[N+]1(C)CCc2ccccc2C1 (stereo unspecified)			inactive
